Structures are written as SMILES. In brackets after ≈: the same amount, converted by molar mass. Entries after “also recorded” stand apart in the source; their conditions may differ.

Series [1] is described as follows: Solubility study: saturated solutions in SGF and FeSSIF, concentration by HPLC. The series is classed as physicochemical. The following applies: for Solubility FeSSIF: FeSSIF (fed state simulated intestinal fluids, pH=5.0); for Solubility SGF: SGF (simulated gastric fluids). The text has this:
High Performance Liquid Chromatography (HPLC) data in the present disclosure were collected from an Agilent 1260 with Diode Array Detector (DAD). The HPLC method parameters for purity test in the present disclosure are as follows: • 1. Column: Waters XBridge C18 150×4.6 mm, 5 μm • 2. Mobile Phase: A: 0.1% TFA in H2O • B: 0.1% TFA in Acetonitrile
The prepared apabetalone Form CS2 was suspended into SGF (simulated gastric fluids) and FeSSIF (fed state simulated intestinal fluids, pH=5.0) to obtain saturated solutions. After being equilibrated for 1 h and 24 h, concentrations of the saturated solutions were measured by HPLC.
The prepared Form CS8 was suspended into SGF (simulated gastric fluids) and FeSSIF (fed state simulated intestinal fluids, pH=5.0) to obtain saturated solutions. After being equilibrated for 1 h, concentrations of the saturated solutions were measured by HPLC.
The prepared Form CS13 was suspended into SGF (simulated gastric fluids) and FeSSIF (fed state simulated intestinal fluids, pH=5.0) to obtain saturated solutions. After being equilibrated for 1 h, 4 h and 24 h, concentrations of the saturated solutions were measured by HPLC.
The prepared apabetalone Form CS20 was suspended into SGF (simulated gastric fluids) and FeSSIF (fed state simulated intestinal fluids, pH=5.0) to obtain saturated solutions. After being equilibrated for 1 h, 4 h and 24 h, concentrations of the saturated solutions were measured by HPLC.
The prepared solid of apabetalone Form CS1 was suspended into SGF (simulated gastric fluids) and FeSSIF (fed state simulated intestinal fluids, pH=5.0) to obtain saturated solutions. After being equilibrated for 1 h, 4 h and 24 h, concentrations of the saturated solutions were measured by HPLC.
The prepared solid of apabetalone Form CS7 was suspended into SGF (simulated gastric fluids) and FeSSIF (fed state simulated intestinal fluids, pH=5.0) to obtain saturated solutions. After being equilibrated for 1 h, 4 h and 24 h, concentrations of the saturated solutions were measured by HPLC.
The prepared solid of apabetalone Form CS9 was suspended into SGF (simulated gastric fluids) and FeSSIF (fed state simulated intestinal fluids, pH=5.0) to obtain saturated solutions. After being equilibrated for 1 h, 4 h and 24 h, concentrations of the saturated solutions were measured by HPLC.
The prepared solid of apabetalone Form CS11 was suspended into SGF (simulated gastric fluids) and FeSSIF (fed state simulated intestinal fluids, pH=5.0) to obtain saturated solutions. After being equilibrated for 1 h, 4 h and 24 h, concentrations of the saturated solutions were measured by HPLC.
The prepared solid of apabetalone Form CS4 was suspended into SGF (simulated gastric fluids) and FeSSIF (fed state simulated intestinal fluids, pH=5.0) to obtain saturated solutions. After being equilibrated for 1 h, 4 h and 24 h, concentrations of the saturated solutions were measured by HPLC.

Series [2] in a line: Dissolution test of Form CS1 capsule. Particulars: capsule with 50 mg API; HCl (0.1 mol/L), paddle, 900 mL, 75 rpm, 37° C.; at 20 minutes. The series is classed as physicochemical.
Experimental: Certain amount of the API, microcrystalline cellulose, croscarmellose sodium according to Table 5.8 and 2 mg of magnesium stearate were weighted and blended for 2 minutes. Flakes were prepared using a manual tablet press at 5 KN pressure with a φ20 mm round tooling. The crushed flakes were manually sieved through 20 mesh sieve. 2 mg of magnesium stearate was added, and then the obtained powder was blended for 1 minute. The mixture was encapsulated into a 1# capsule shell, then the capsule was packed in 35 cc HDPE (high density polyethylene) bottle (one capsule per bottle) containing 1 g of desiccant. The bottle was then sealed by sealing machine. […] Dissolution test was performed on the obtained capsule. The conditions are as follows: Medium: HCl (0.1 mol/L) Method: Paddle Volume: 900 mL Speed: 75 rpm Temperature: 37° C.
Series [3] is described as follows: Mechanical stability: manual grinding for 5 minutes, XRPD. The series is classed as physicochemical. Particulars: ground manually in a mortar for 5 minutes. The protocol:
Certain amount of Form CS1 was placed in a mortar and ground manually for 5 minutes. XRPD of the solid obtained was tested. Certain amount of Form CS4 was placed in a mortar and ground manually for 5 minutes. Crystalline form of the sample was checked by XRPD.

Series [4] in a line: Hygroscopicity by dynamic vapor sorption (DVS). Type of series: physicochemical. Particulars: for Hygroscopicity class: Chinese Pharmacopoeia 2015 criteria, 80% RH; for Hygroscopicity class / Weight Gain under 80% Relative Humidity: 25° C.; for Weight Gain under 80% Relative Humidity: DVS, about 10 mg of sample; for Form change after DVS test (XRPD): XRPD before and after DVS test. The protocol:
Dynamic Vapor Sorption (DVS) was measured via a SMS (Surface Measurement Systems Ltd.) intrinsic DVS instrument. Its control software is DVS—Intrinsic control software, and its analysis software is DVS—Intrinsic Analysis software. Typical Parameters for DVS test are as follows: • Temperature: 25° C. • Gas and flow rate: N2, 200 mL/min • dm/dt: 0.002%/min • RH range: 0% RH to 95% RH Dynamic vapor sorption (DVS) was applied to test hygroscopicity of Form CS8 in the present disclosure with about 10 mg of sample. […] Dynamic vapor sorption (DVS) was applied to test hygroscopicity of Form CS1 of the present disclosure with about 10 mg of sample. […] Dynamic vapor sorption (DVS) was applied to test hygroscopicity of Form CS7 of the present disclosure with about 10 mg of samples. Dynamic vapor sorption (DVS) was applied to test hygroscopicity of Form CS9 of the present disclosure with about 10 mg of sample. […] Dynamic vapor sorption (DVS) was applied to test hygroscopicity of Form CS4 of the present disclosure with about 10 mg of sample.

Series [5] can be described thus: Stability study: open-dish storage in constant temperature and humidity chambers, XRPD and purity check. The series is classed as physicochemical. Particulars: for Form change and purity decrease after storage / Purity after storage: open dish. The protocol: Form CS8 was placed in a constant temperature and humidity chamber at 25° C./60% RH for 2 weeks in open dish. Crystalline form of the sample were tested by XRPD and impurity of the sample were checked. […] Crystalline form of the sample were tested by XRPD and impurity of the sample were checked. […] Two samples of apabetalone Form CS1 were placed in constant temperature and humidity chambers at 25° C./60% RH and 40° C./75% RH for 10 months in open dishes. The samples were characterized by XRPD and chemical impurity. […] Three samples of apabetalone Form CS7 were placed in constant temperature and humidity chambers at 25° C./60% RH and 40° C./75% RH for 4 weeks and 80° C. for 1 day in open dishes. Crystalline form of the sample were tested by XRPD and impurity of the sample were checked. […] Two samples of apabetalone Form CS9 were placed in constant temperature and humidity chambers at 25° C./60% RH and 40° C./75% RH for 10 months in open dishes. Crystalline form of the sample were tested by XRPD and impurity of the sample were tested to check the stability of Form CS9. […] Two samples of apabetalone Form CS11 were placed in constant temperature and humidity chambers at 25° C./60% RH and 40° C./75% RH for 6 weeks in open dishes. Crystalline form of the sample were tested by XRPD and impurity of the sample were tested to check the stability of Form CS11. […] Two samples of apabetalone Form CS4 were placed in open dishes in constant temperature and humidity chambers at 25° C./60% RH and 40° C./75% RH for 10 months. Crystalline form of the sample were tested by XRPD and impurity of the sample were tested to check the stability of Form CS4.

Series [6] can be described thus: Formulation study: form stability in the capsule preparation. The series is classed as physicochemical. The following applies: capsule with microcrystalline cellulose, croscarmellose sodium, magnesium stearate. The method, then:
Certain amount of the API, microcrystalline cellulose, croscarmellose sodium according to Table 5.8 and 2 mg of magnesium stearate were weighted and blended for 2 minutes. Flakes were prepared using a manual tablet press at 5 KN pressure with a φ20 mm round tooling. The crushed flakes were manually sieved through 20 mesh sieve. 2 mg of magnesium stearate was added, and then the obtained powder was blended for 1 minute. The mixture was encapsulated into a 1# capsule shell, then the capsule was packed in 35 cc HDPE (high density polyethylene) bottle (one capsule per bottle) containing 1 g of desiccant. The bottle was then sealed by sealing machine.

The target in series [7] is BRD4 of BET family (Homo sapiens, UniProt O60885). The following applies: background statement, regulates ApoA-1 expression; cited from earlier work.

For the compound `COc1cc(OC)c2c(=O)[nH]c(-c3cc(C)c(OCCO)c(C)c3)nc2c1` [Form CS1, 2-[4-(2-hydroxyethoxy)-3,5-dimethylphenyl]-5,7-dimethoxyquinazolin-4(3H)-one], the “Solubility FeSSIF” value in series [1] (equilibrated 1 h) is on record as 0.14 mg/mL (≈ 378 µM); in series [1] (equilibrated 4 h), 0.11 mg/mL (≈ 297 µM); in series [1] (equilibrated 24 h) it was 0.14 mg/mL (≈ 378 µM). Moreover, the “Solubility SGF” value in series [1] (equilibrated 1 h) is on record as 0.31 mg/mL (≈ 837 µM); in series [1] (equilibrated 4 h), 0.29 mg/mL (≈ 783 µM); in series [1] (equilibrated 24 h), 0.33 mg/mL (≈ 891 µM). Also, in series [2], the “Released amount in dissolution test” value is “more than 90%”. Also, in series [3], the “Form change and crystallinity decrease after manual grinding (XRPD)” value was “no form change and obvious crystallity decrease; also recorded: doesn't change after manual grinding”. Besides, in series [4], the Hygroscopicity class entry is on record as “almost non hygroscopic”. Besides, in series [4], the “Weight Gain under 80% Relative Humidity” value was 0.13%. Moreover, the “Form change after DVS test (XRPD)” value in series [4] is recorded as “No form change; also recorded: doesn't change”. Further, the “Time the form is stable when stored” value in series [5] (25° C./60% RH) and in series [5] (40° C./75% RH) was “at least 10 months” in each case. Also, the “Form change and purity decrease after storage” value in series [5] (25° C./60% RH, 10 months) was “No form change and obvious purity decrease”; in series [5] (40° C./75% RH, 10 months), “No form change and obvious purity decrease”. The Purity after storage in series [5] (25° C./60% RH, 1 week) amounted to 99.27; in series [5] (25° C./60% RH, 2 weeks), 99.23; in series [5] (25° C./60% RH, 5 weeks), 99.25; in series [5] (25° C./60% RH, 10 months) it was 99.24; in series [5] (40° C./75% RH, 1 week), 99.20; in series [5] (40° C./75% RH, 2 weeks), 99.20. The Purity after storage in series [5] (40° C./75% RH, 5 weeks) came out at 99.25; in series [5] (40° C./75% RH, 10 months) it was 99.21. Also, the “Stability of the form in the preparations” value in series [6] is “stable in the preparations”.

As for `COc1cc(OC)c2c(=O)[nH]c(-c3cc(C)c(OCCO)c(C)c3)nc2c1` [Form CS4, 2-[4-(2-hydroxyethoxy)-3,5-dimethylphenyl]-5,7-dimethoxyquinazolin-4(3H)-one], the “Solubility FeSSIF” value in series [1] (equilibrated 1 h) is 0.14 mg/mL (≈ 378 µM); in series [1] (equilibrated 4 h), 0.10 mg/mL (≈ 270 µM); in series [1] (equilibrated 24 h), 0.16 mg/mL (≈ 432 µM). In addition, the “Solubility SGF” value in series [1] (equilibrated 1 h) is reported as 0.30 mg/mL (≈ 810 µM); in series [1] (equilibrated 4 h), 0.28 mg/mL (≈ 756 µM); in series [1] (equilibrated 24 h), 0.38 mg/mL (≈ 1030 µM). For the same compound, in series [3], the “Form change and crystallinity decrease after manual grinding (XRPD)” value is “doesn't change after manual grinding; also recorded: no form change and obvious crystalline decrease”. In series [4], the Hygroscopicity class result is recorded as “almost non hygroscopic”. For the same compound, the “Weight Gain under 80% Relative Humidity” value in series [4] was determined as 0.12%. For the same compound, in series [4], the “Form change after DVS test (XRPD)” value is on record as “doesn't change; also recorded: No form change”. Further, the “Time the form is stable when stored” value in series [5] (25° C./60% RH) and in series [5] (40° C./75% RH) was “at least 10 months” each time. Besides, the “Form change and purity decrease after storage” value was “No form change and obvious purity decrease” in series [5] (25° C./60% RH, 10 months); “No form change and obvious purity decrease” in series [5] (40° C./75% RH, 10 months). The Purity after storage is given as 99.10 in series [5] (25° C./60% RH, 1 week); 99.06 in series [5] (25° C./60% RH, 2 weeks); 99.05 in series [5] (25° C./60% RH, 4 weeks); 99.04 in series [5] (25° C./60% RH, 10 months); 99.10 in series [5] (40° C./75% RH, 1 week); 98.99 in series [5] (40° C./75% RH, 2 weeks). Moreover, the Purity after storage amounted to 99.04 in series [5] (40° C./75% RH, 4 weeks) and 99.02 in series [5] (40° C./75% RH, 10 months).

`COc1cc(OC)c2c(=O)[nH]c(-c3cc(C)c(OCCO)c(C)c3)nc2c1` [apabetalone, 2-[4-(2-hydroxyethoxy)-3,5-dimethylphenyl]-5,7-dimethoxyquinazolin-4(3H)-one]: the “Inhibition of BRD4” value in series [7] was “can inhibit BRD4”.

These data come from US10752595B2, “Crystalline forms of a bromodomain and extraterminal protein inhibitor drug, processes for preparation thereof, and use thereof” (Crystal Pharmaceutical (Suzhou) Co., Ltd., priority 2016, dated 2020).
